Reference: patent publication US11028078B2 (The Johns Hopkins University, priority 2011, dated 2021)

Key:
[1] = tested on: HUVEC; assay: HUVEC proliferation assay ([3H]thymidine incorporation); type: cell-based, human; details: HUVEC; IC50 of analog relative to IC50 of itraconazole
Description: The activity of the analogs against HUVEC proliferation, an in vitro proxy for angiogenesis inhibition (Table 3) was analyzed. […]
Pooled HUVEC (Lonza) were grown in EGM-2 bullet kit media (Lonza) and used at passage eight or lower. The proliferation assays were conducted as previously described (Nacev, B.; Low, W. K.; Huang, Z.; Su, T.; Su, Z.; Alkuraya, H.; Kasuga, D.; Sun, W.; Trager, M.; Braun, M.; Fischer, G.; Zhang, K.; Liu, J. O., Acalcineurin-independent mechanism of angiogenesis inhibition by anon-immunosuppressive Cyclosporin Aanalog. J. Pharmacol. Exp. Ther. 2011, DOI:10.1124/jpet.111.18085).

[2] = tested on: VEGFR2; assay: VEGFR2 glycosylation in HUVEC (Western blot scoring); type: cell-based, human; details: VEGFR2 hypoglycosylation score in HUVEC, 2 μM, 24 h
Description: VEGFR2 hypoglycosylation was scored either robust (++), intermediate (+), or absent (−) (FIG. 6).
HUVEC were seeded at 5×10^4 per well of a 6-well plate in 3 mL of media. After an overnight recovery, the media was replaced with 2 mL fresh media and the analogs were added from 200× stocks in DMSO. Following a 24-h incubation, the media was aspirated and 2×SDS sample buffer was added to the cells which were incubated on ice for 10 min and then boiled for 10 min. […] Following three washes in TBS-T, the membrane was incubated with anti-rabbit horseradish peroxidase conjugated IgG (GE Healthcare) (1:5000-1:10000 dilution) in 1% BSA in TBS-T. The membranes were washed three times in TBS-T, incubated for 1-5 minutes with ECL substrate (Immobilon Wester, Milipore) and visualized (Kodak Image Staion 440 CF).

[3] = tested on: MB cultures derived from Ptch−/+; p53−/− mice; assay: Medulloblastoma (MB) proliferation assay; type: cell-based, mouse; details: mouse medulloblastoma cultures, 96 h; relative to itraconazole
From the text: These cultures were derived from Ptch^−/+; p53^−/− mice that spontaneously develop medulloblastoma associated with ligand independent Hh pathway activation.
MB cultures were derived from mouse Ptch^−/+; p53^−/− MB grown as hind-flank allografts in nude mice (Harlan). Briefly, tumors were mechanically disrupted and made into single cell suspensions by two passages through a 70 μm nylon filter. Cells were pelleted by centrifugation and resuspended in PBS pH 7.4 twice. The cell suspension was then subjected to centrifugation at 1000×g for 25 min over a ficoll gradient. The viable cell layer formed at the ficoll boundary was then collected, suspended in PBS, and pelleted by centrifugation. The resulting pellet was then suspended and cultured as “neurospheres” in Neurobasal Media-A supplemented with retinoic acid deficient B-27 extract (NBMedia). Cells were cultured for three passages, with neurospheres disaggregated using Accumax (Innovative Cell Technologies) between passages.
Cultured MB neurospheres were disaggregated as described and 1×10^4 cells were seeded into wells of a 96-well assay plate in NBMedia and exposed to multiple analogue concentrations: Relative cell numbers following a 96-h incubation were quantified by CellTiter 96® AQueous One Solution Cell Proliferation Assay (Promega) per manufacturer's recommendations using a SpectraMax M2e spectrophotometer and SoftMax Pro software (Molecular Devices). Data was analyzed using Prism5 (GraphPad Software) and IC50 and IC90 values were determined from dose-response curves fitted to mean corrected absorbance normalized to control treatment.

[4] = tested on: Gli1 transcript; assay: Quantification of Gli1 transcript by TaqMan analysis in MB cells (Hh pathway); type: cell-based, mouse; details: Gli1 transcript fold induction score; MB cells exposed 24 h at the IC90 for MB proliferation
From the text: Inhibitors of the Hh pathway are known to inhibit MB cell proliferation. However, MB cell proliferation is also affected by drugs with targets other than Hh signaling.
Following drug exposure, cells were washed in PBS and pelleted by centrifugation at 300×g. Cell pellets were lysed in Trizol reagent (Invitrogen). Total RNA was separated and collected in the aqueous phase following centrifugation of lysate in the presence of chloroform. Total RNA was ethanol precipitated and purified over RNeasy Mini Kit (Qiagen) filter columns per manufacturer's recommendations. Transcript levels were quantified using gene-specific TaqMan primer/probe sets and the StepOne Plus Real-Time PCR system (Applied Biosystems) on cDNA reverse transcribed using the QuantiTect Reverse Transcription Kit (Qiagen) per manufacturers' recommendations. Results were quantified using StepOne Plus software v2.1 (Applied Biosystems) and were expressed as fold induction relative to control samples using the A ΔCt (2^−ΔΔCt) method with actin as an internal control. The primer/probe set (Applied Biosystems) for TaqMan PCR for mouse Gli-1 was Mm00494645_m1, and for mouse actin was Mm00607939_s1.

Compound	Proliferation (IC50/IC50 Itra) [1]	Glycosylation (2 μM dose) [2]	MB Proliferation (IC50/IC50 Itra) [3]	Gli I Inhibition (IC90 Prolif. dose) [4]
CCCn1ncn(-c2ccc(N3CCN(c4ccc(OC[C@@H]5CO[C@@](Cn6cncn6)(c6ccc(Cl)cc6Cl)O5)cc4)CC3)cc2)c1=O (relative stereo) [Compound 7c, cis-(2S,4R)-4-[4-[4-[4-[[2-(2,4-Dichlorophenyl)-2-(1H-1,2,4-triazol-1-ylmethyl)-1,3-dioxolan-4-yl]methoxy]phenyl]-lpiperazinyl]phenyl]-2,4-dihydro-2-propyl-3H-1,2,4-triazol-3-one]	1.06	+	1.01	++ (≤0.15)
CC(C)n1ncn(-c2ccc(N3CCN(c4ccc(OC[C@@H]5CO[C@@](Cn6cncn6)(c6ccc(Cl)cc6Cl)O5)cc4)CC3)cc2)c1=O (relative stereo) [Compound 7d, cis-(2S,4R)-4-[4-[4-[4-[[2-(2,4-Dichlorophenyl)-2-(1H-1,2,4-triazol-1-ylmethyl)-1,3-dioxolan-4-yl]methoxy]phenyl]-lpiperazinyl]phenyl]-2,4-dihydro-2-isopropyl-3H-1,2,4-triazol-3-one]	2.18	−	1.06	− (≥0.45)
CCCCn1ncn(-c2ccc(N3CCN(c4ccc(OC[C@@H]5CO[C@@](Cn6cncn6)(c6ccc(Cl)cc6Cl)O5)cc4)CC3)cc2)c1=O (relative stereo) [Compound 7e, cis-(2S,4R)-4-[4-[4-[4-[[2-(2,4-Dichlorophenyl)-2-(1H-1,2,4-triazol-1-ylmethyl)-1,3-dioxolan-4-yl]methoxy]phenyl]-lpiperazinyl]phenyl]-2,4-dihydro-2-butyl-3H-1,2,4-triazol-3-one]	2.10	−	0.70	− (≥0.45)
CC(C)Cn1ncn(-c2ccc(N3CCN(c4ccc(OC[C@@H]5CO[C@@](Cn6cncn6)(c6ccc(Cl)cc6Cl)O5)cc4)CC3)cc2)c1=O (relative stereo) [Compound 7f, cis-(2S,4R)-4-[4-[4-[4-[[2-(2,4-Dichlorophenyl)-2-(H,2,4-triazol-1-ylmethyl)-1,3-dioxolan-4-yl]methoxy]phenyl]-lpiperazinyl]phenyl]-2,4-dihydro-2-isobutyl-3H-1,2,4-triazol-3-one]	1.32	++	0.86	− (≥0.45)
CCCC(C)n1ncn(-c2ccc(N3CCN(c4ccc(OC[C@@H]5CO[C@@](Cn6cncn6)(c6ccc(Cl)cc6Cl)O5)cc4)CC3)cc2)c1=O (relative stereo) [Compound 7h, cis-(2S,4R)-4-[4-[4-[4-[[2-(2,4-Dichlorophenyl)-2-(1H-1,2,4-triazol-1-ylmethyl)-1,3-dioxolan-4-yl]methoxy]phenyl]-lpiperazinyl]phenyl]-2,4-dihydro-2-(1-methylbutyl)-3H-1,2,4-triazol-3-one]	0.75	++	0.38	++ (≤0.15)
CC(C)CCn1ncn(-c2ccc(N3CCN(c4ccc(OC[C@@H]5CO[C@@](Cn6cncn6)(c6ccc(Cl)cc6Cl)O5)cc4)CC3)cc2)c1=O (relative stereo) [Compound 7i, cis-(2S,4R)-4-[4-[4-[4-[[2-(2,4-Dichlorophenyl)-2-(1H-1,2,4-triazol-1-ylmethyl)-1,3-dioxolan-4-yl]methoxy]phenyl]-lpiperazinyl]phenyl]-2,4-dihydro-2-(3-methylbutyl)-3H-1,2,4-triazol-3-one]	1.42	+	0.41	++ (≤0.15)
CCCCCn1ncn(-c2ccc(N3CCN(c4ccc(OCC5COC(Cn6cncn6)(c6ccc(Cl)cc6Cl)O5)cc4)CC3)cc2)c1=O [Compound 7g, cis-(2S,4R)-4-[4-[4-[4-[[2-(2,4-Dichlorophenyl)-2-(1H-1,2,4-triazol-1-ylmethyl)-1,3-dioxolan-4-yl]methoxy]phenyl]-lpiperazinyl]phenyl]-2,4-dihydro-2-pentyl-3H-1,2,4-triazol-3-one]	1.09	−	0.66	++ (≤0.15)
CCC(CC)n1ncn(-c2ccc(N3CCN(c4ccc(OCC5COC(Cn6cncn6)(c6ccc(Cl)cc6Cl)O5)cc4)CC3)cc2)c1=O [Compound 7j, cis-(2S,4R)-4-[4-[4-[4-[[2-(2,4-Dichlorophenyl)-2-(1H-1,2,4-triazol-1-ylmethyl)-1,3-dioxolan-4-yl]methoxy]phenyl]-lpiperazinyl]phenyl]-2,4-dihydro-2-(1-ethylpropyl)-3H-1,2,4-triazol-3-one]	1.10	+	0.54	++ (≤0.15)
O=c1n(-c2ccc(N3CCN(c4ccc(OCC5COC(Cn6cncn6)(c6ccc(Cl)cc6Cl)O5)cc4)CC3)cc2)cnn1C1CCCCC1 [Compound 7k, cis-(2S,4R)-4-[4-[4-[4-[[2-(2,4-Dichlorophenyl)-2-(1H-1,2,4-triazol-1-ylmethyl)-1.3-dioxolan-4-yl]methoxy]phenyl]-lpiperazinyl]phenyl]-2,4-dihydro-2-(1-cyclohexyl)-3H-1,2,4-triazol-3-one]	0.44	++	0.37	− (≥0.45)
O=c1n(-c2ccc(N3CCN(c4ccc(OCC5COC(Cn6cncn6)(c6ccc(Cl)cc6Cl)O5)cc4)CC3)cc2)cnn1CC1CCCC1 [Compound 7l, cis-(2S,4R)-4-[4-[4-[4-[[2-(2/l-Dichlorophenyl)-2-(1H-1,2,4-triazol-1-ylmethyl)-1,3-dioxolan-4-yl]methoxy]phenyl]-lpiperazinyl]phenyl]-2,4-dihydro-2-(1-cyclopentylmethyl)-3H-1,2,4-triazol-3-one]	0.50	++	0.50	+ (0.16 to 0.44)
